Test results from PubChem BioAssay (NCI).
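Tested at 5 concentrations; 48 h exposure; 96-well plates; endpoints linearly interpolated, else capped at highest concentration. Abbreviation: GI50, concentration required for 50% inhibition of growth. TGI denotes the concentration required for complete inhibition of growth.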

Columns and labels:
Assay in all cases: NCI-60 cell line screen, 48 h
[1] = test system: SK-MEL-28 melanoma
[2] = test system: MALME-3M melanoma
[3] = test system: MCF7 breast
[4] = test system: SK-MEL-5 melanoma
[5] = test system: NCI-H522 lung
[6] = test system: UACC-257 melanoma
[7] = test system: HOP-62 NSCLC
[8] = test system: EKVX NSCLC
[9] = test system: DU-145 prostate
[10] = test system: HL-60(TB) leukemia
[11] = test system: A549 NSCLC
[12] = test system: HT29 colon
[13] = test system: NCI-H23 lung
[14] = test system: HS 578T breast
[15] = test system: NCI/ADR-RES ovarian
[16] = test system: SNB-19 CNS
[17] = test system: SNB-75 CNS
[18] = test system: SR leukemia
[19] = test system: SF-268 CNS
[20] = test system: KM12 colon
[21] = test system: MDA-MB-435
[22] = test system: A498 renal
[23] = test system: 786-0 renal
[24] = test system: NCI-H226 lung
[25] = test system: OVCAR-5 ovarian
[26] = test system: OVCAR-3 ovarian
[27] = test system: UACC-62 melanoma
[28] = test system: PC-3 prostate

CCCCCCCCCC(CCCC(O)CC(=O)O)OC1OC(COC2OC(C)C(O)C(O)C2O)C(O)C(O)C1OC1OC(CO)C(O)C(O)C1OC1OC(C)C(OC(=O)CC(C)C)C(O)C1O (stereo unspecified)
GI50 [1]: > 60 µM
TGI [1]: > 60 µM
GI50 [2]: > 60 µM
TGI [2]: > 60 µM
GI50 [3]: > 60 µM
TGI [3]: > 60 µM
GI50 [4]: > 60 µM
TGI [4]: > 60 µM
GI50 [5]: > 60 µM
TGI [5]: > 60 µM
GI50 [6]: > 60 µM
TGI [6]: > 60 µM
GI50 [7]: > 60 µM
TGI [7]: > 60 µM
GI50 [8]: > 60 µM
TGI [8]: > 60 µM
GI50 [9]: > 60 µM
TGI [9]: > 60 µM
GI50 [10]: > 60 µM
TGI [10]: > 60 µM
GI50 [11]: > 60 µM
TGI [11]: > 60 µM
GI50 [12]: > 60 µM
TGI [12]: > 60 µM
GI50 [13]: > 60 µM
TGI [13]: > 60 µM
GI50 [14]: > 60 µM
TGI [14]: > 60 µM
GI50 [15]: > 60 µM
TGI [15]: > 60 µM
GI50 [16]: > 60 µM
TGI [16]: > 60 µM
GI50 [17]: > 60 µM
TGI [17]: > 60 µM
GI50 [18]: > 60 µM
TGI [18]: > 60 µM
GI50 [19]: > 60 µM
TGI [19]: > 60 µM
GI50 [20]: > 60 µM
TGI [20]: > 60 µM
GI50 [21]: > 60 µM
TGI [21]: > 60 µM
GI50 [22]: 0.459 µM
TGI [22]: 34.5 µM
GI50 [23]: > 60 µM
TGI [23]: > 60 µM
GI50 [24]: > 60 µM
TGI [24]: > 60 µM
GI50 [25]: > 60 µM
TGI [25]: > 60 µM
GI50 [26]: > 60 µM
TGI [26]: > 60 µM
GI50 [27]: > 60 µM
TGI [27]: > 60 µM
GI50 [28]: > 60 µM
TGI [28]: > 60 µM
